{"source": "patent US20190208782A1", "about": "“PROCESSING COMPOSITION FOR C[…] WEEDS” (Arch Chemicals, Inc., priority 2018, published 2019)", "key": {"Eurasian watermilfoil": {"system": "Eurasian watermilfoil", "assay": "Efficacy of fluroxypyr herbicide on Eurasian watermilfoil under mesocosm conditions (Example 1)", "assay_type": "in vivo", "settings": "24 h exposure", "from_the_text": "Materials and Methods: Eurasian watermilfoil was obtained from cultures. Two apical tips approximately 15 cm long were planted into each of 108, plastic containers. The containers were filled with Black Kow potting soil and amended with 2 g/L Osmocote fertilizer 19-6-12. Four containers of potted Eurasian watermilfoil were placed into each of 27 mesocosm tanks. Mesocosm tanks were filled to a volume of 276 L (48 cm depth) and plants allowed to grow approximately 2-3 weeks prior to herbicide treatments or until plants were at or near the water surface. Pre-treatment biomass was harvested from an extra mesocosm tank set up with potted Eurasian watermilfoil for this purpose. Biomass was harvested by collecting aboveground biomass of plants in the tank. Plant material were dried at 70 C for at least 48 h and weighed to assess biomass.\nAfter pre-treatment data collection, concentrated liquid herbicides were applied as the formulations and rates outlined in Table 1. An untreated reference was also included for comparison purposes. All herbicide applications were made using a 24 h exposure and replicated 3 times. After the exposure time was reached, each mesocosm tank was drained and refilled with fresh water to remove any herbicide residue remaining in the water column.\nEach week, tanks were rated for percent control on a 0-100% scale (0%=no control; 100%=complete plant mortality). Four weeks after treatment (WAT), living plants were harvested, sorted to aboveground biomass, dried, and weighed for biomass determination. Differences between treatments were analyzed using an ANOVA test with means separated using a Fisher's Protected LSD test. Fluroxypyr data were fitted to an exponential decay regression model in order to estimate the EC50 value for fluroxypyr use on Eurasian watermilfoil."}, "water hyacinth": {"system": "water hyacinth", "assay": "Foliar application of fluroxypyr herbicide on water hyacinth (Example 2)", "assay_type": "in vivo", "settings": "for Water hyacinth biomass reduction: 6 WAT", "protocol": "Materials and Methods: Water hyacinth was obtained from field locations and cultured outdoors in a 300 gallon tank. Water in the culture tank was amended with 30 mg/L Miracle-Gro® fertilizer (14-8-16) every week to maintain plant growth. Aquashade® was added to the tank in sufficient concentration to darken the water in order to reduce algae growth\nOnce a sufficient density of water hyacinth had been achieved in the culture tank (plants had covered the water surface), 54-63 rosettes of similar size were harvested and divided so that six to seven rosettes (depending upon size) were placed into each of 9, 100 gallon treatment tanks. The treatment tanks were filled to a depth of 45 cm with water. Water in each treatment tank was amended and maintained in a similar fashion as the culture tank. Plants were allowed to grow approximately 2 weeks or until the water surface in each tank had been covered. Pre-treatment biomass (1 per tank) was harvested using a 0.1 m^2 PVC quadrat. The quadrat was pushed down over the plant mat in each tank and all biomass was harvested within the PVC frame. Biomass from each tank was rinsed, placed in a paper bag, and dried at 50 C to assess biomass.\nAfter the growth period and pre-treatment harvest, plants were treated as a foliar spray using the product and rates outlined in Table 3. Treatments were applied using water as a carrier in a fine foliar spray and a total spray volume of 100 gal/acre. AB Brand Adjuvant (commercially available from Lonza, Inc.) was included in the herbicide solution at a rate of 0.25% v:v.\nAfter treatment, each tank was rated on a scale from 0 (no control) to 100% (complete mortality) control every week for six weeks. At six weeks after treatment the 0.1 m^2 PVC quadrat was used to harvest 1 biomass sample from each tank if living biomass was present. Samples were rinsed, placed into labeled paper bags, and dried at 50 C to determine dry weight biomass. Differences between treatments were analyzed using ANOVA at a p≤0.05 significance level, and if a difference in treatments was detected means were then separated using a Fisher's Protected LSD test."}}, "data": [{"molecule": "CCCCCCC(C)OC(=O)COc1nc(F)c(Cl)c(N)c1Cl", "note": "(stereo not shown) [Fluroxypyr ester, [(4-amino-3,5-dichloro-6-fluoro-2-pyridinyl)oxy]acetic acid, 1-methylheptyl ester]", "values": [{"measurement": "Visual control ratings of Eurasian watermilfoil", "setting": "Eurasian watermilfoil; 50 ug/L, 1 WAT", "result": 30, "unit": "%"}, {"measurement": "Visual control ratings of Eurasian watermilfoil", "setting": "Eurasian watermilfoil; 50 ug/L, 2 WAT", "result": 60, "unit": "%"}, {"measurement": "Visual control ratings of Eurasian watermilfoil", "setting": "Eurasian watermilfoil; 50 ug/L, 3 WAT", "result": 50, "unit": "%"}, {"measurement": "Visual control ratings of Eurasian watermilfoil", "setting": "Eurasian watermilfoil; 50 ug/L, 4 WAT", "result": 45, "unit": "%"}, {"measurement": "biomass reduction of Eurasian watermilfoil", "setting": "Eurasian watermilfoil; 50 ug/L, 4 WAT", "result": 76, "unit": "%"}, {"measurement": "Visual control ratings of Eurasian watermilfoil", "setting": "Eurasian watermilfoil; 100 ug/L, 1 WAT", "result": 60, "unit": "%"}, {"measurement": "Visual control ratings of Eurasian watermilfoil", "setting": "Eurasian watermilfoil; 100 ug/L, 2 WAT", "result": 90, "unit": "%"}, {"measurement": "Visual control ratings of Eurasian watermilfoil", "setting": "Eurasian watermilfoil; 100 ug/L, 3 WAT", "result": 90, "unit": "%"}, {"measurement": "Visual control ratings of Eurasian watermilfoil", "setting": "Eurasian watermilfoil; 100 ug/L, 4 WAT", "result": 95, "unit": "%"}, {"measurement": "biomass reduction of Eurasian watermilfoil", "setting": "Eurasian watermilfoil; 100 ug/L, 4 WAT", "result": 99, "unit": "%"}, {"measurement": "Visual control ratings of Eurasian watermilfoil", "setting": "Eurasian watermilfoil; 200 ug/L, 1 WAT", "result": 60, "unit": "%"}, {"measurement": "Visual control ratings of Eurasian watermilfoil", "setting": "Eurasian watermilfoil; 200 ug/L, 2 WAT", "result": 100, "unit": "%"}, {"measurement": "Visual control ratings of Eurasian watermilfoil", "setting": "Eurasian watermilfoil; 200 ug/L, 3 WAT", "result": 100, "unit": "%"}, {"measurement": "Visual control ratings of Eurasian watermilfoil", "setting": "Eurasian watermilfoil; 200 ug/L, 4 WAT", "result": 100, "unit": "%"}, {"measurement": "Visual control ratings of Eurasian watermilfoil", "setting": "Eurasian watermilfoil; 400 ug/L, 1 WAT", "result": 70, "unit": "%"}, {"measurement": "Visual control ratings of Eurasian watermilfoil", "setting": "Eurasian watermilfoil; 400 ug/L, 2 WAT", "result": 100, "unit": "%"}, {"measurement": "Visual control ratings of Eurasian watermilfoil", "setting": "Eurasian watermilfoil; 400 ug/L, 3 WAT", "result": 100, "unit": "%"}, {"measurement": "Visual control ratings of Eurasian watermilfoil", "setting": "Eurasian watermilfoil; 400 ug/L, 4 WAT", "result": 100, "unit": "%"}, {"measurement": "Visual control ratings of Eurasian watermilfoil", "setting": "Eurasian watermilfoil; 800 ug/L, 1 WAT", "result": 70, "unit": "%"}, {"measurement": "Visual control ratings of Eurasian watermilfoil", "setting": "Eurasian watermilfoil; 800 ug/L, 2 WAT", "result": 100, "unit": "%"}, {"measurement": "Visual control ratings of Eurasian watermilfoil", "setting": "Eurasian watermilfoil; 800 ug/L, 3 WAT", "result": 100, "unit": "%"}, {"measurement": "Visual control ratings of Eurasian watermilfoil", "setting": "Eurasian watermilfoil; 800 ug/L, 4 WAT", "result": 100, "unit": "%"}, {"measurement": "Visual control ratings of Eurasian watermilfoil", "setting": "Eurasian watermilfoil; 1600 ug/L, 1 WAT", "result": 80, "unit": "%"}, {"measurement": "Visual control ratings of Eurasian watermilfoil", "setting": "Eurasian watermilfoil; 1600 ug/L, 2 WAT", "result": 100, "unit": "%"}, {"measurement": "Visual control ratings of Eurasian watermilfoil", "setting": "Eurasian watermilfoil; 1600 ug/L, 3 WAT", "result": 100, "unit": "%"}, {"measurement": "Visual control ratings of Eurasian watermilfoil", "setting": "Eurasian watermilfoil; 1600 ug/L, 4 WAT", "result": 100, "unit": "%"}, {"measurement": "Visual control ratings of Eurasian watermilfoil", "setting": "Eurasian watermilfoil; 3200 ug/L, 1 WAT", "result": 80, "unit": "%"}, {"measurement": "Visual control ratings of Eurasian watermilfoil", "setting": "Eurasian watermilfoil; 3200 ug/L, 2 WAT", "result": 100, "unit": "%"}, {"measurement": "Visual control ratings of Eurasian watermilfoil", "setting": "Eurasian watermilfoil; 3200 ug/L, 3 WAT", "result": 100, "unit": "%"}, {"measurement": "Visual control ratings of Eurasian watermilfoil", "setting": "Eurasian watermilfoil; 3200 ug/L, 4 WAT", "result": 100, "unit": "%"}, {"measurement": "EC50", "setting": "Eurasian watermilfoil; 4 WAT, mesocosm, read-out: EC50 for Eurasian watermilfoil (biomass, exponential decay regression model)", "result": 8.8, "unit": "ng/mL"}, {"measurement": "Mean percent control ratings of water hyacinth", "setting": "water hyacinth; 8 oz/acre foliar spray, 1 week after treatment", "result": 15, "unit": "%"}, {"measurement": "Mean percent control ratings of water hyacinth", "setting": "water hyacinth; 8 oz/acre foliar spray, 2 weeks after treatment", "result": 40, "unit": "%"}, {"measurement": "Mean percent control ratings of water hyacinth", "setting": "water hyacinth; 8 oz/acre foliar spray, 3 weeks after treatment", "result": 45, "unit": "%"}, {"measurement": "Mean percent control ratings of water hyacinth", "setting": "water hyacinth; 8 oz/acre foliar spray, 4 weeks after treatment", "result": 65, "unit": "%"}, {"measurement": "Mean percent control ratings of water hyacinth", "setting": "water hyacinth; 8 oz/acre foliar spray, 5 weeks after treatment", "result": 85, "unit": "%"}, {"measurement": "Water hyacinth biomass reduction", "setting": "water hyacinth; 8 oz/acre foliar spray", "result": 90, "unit": "%"}, {"measurement": "Mean percent control ratings of water hyacinth", "setting": "water hyacinth; 8 oz/acre foliar spray, 6 weeks after treatment", "result": 85, "unit": "%"}, {"measurement": "time of plant death", "setting": "water hyacinth; 16 oz/acre foliar spray", "result": "approximately 4 WAT"}, {"measurement": "Mean percent control ratings of water hyacinth", "setting": "water hyacinth; 16 oz/acre foliar spray, 1 week after treatment", "result": 35, "unit": "%"}, {"measurement": "Mean percent control ratings of water hyacinth", "setting": "water hyacinth; 16 oz/acre foliar spray, 2 weeks after treatment", "result": 45, "unit": "%"}, {"measurement": "Mean percent control ratings of water hyacinth", "setting": "water hyacinth; 16 oz/acre foliar spray, 3 weeks after treatment", "result": 65, "unit": "%"}, {"measurement": "Mean percent control ratings of water hyacinth", "setting": "water hyacinth; 16 oz/acre foliar spray, 4 weeks after treatment", "result": 85, "unit": "%"}, {"measurement": "Mean percent control ratings of water hyacinth", "setting": "water hyacinth; 16 oz/acre foliar spray, 5 weeks after treatment", "result": 95, "unit": "%"}, {"measurement": "Water hyacinth biomass reduction", "setting": "water hyacinth; 16 oz/acre foliar spray", "result": 99, "unit": "%"}, {"measurement": "Mean percent control ratings of water hyacinth", "setting": "water hyacinth; 16 oz/acre foliar spray, 6 weeks after treatment", "result": 95, "unit": "%"}]}]}
